Assay results: patent publication US6087346A, “Sigma receptor ligands and the use thereof” (Cambridge Neuroscience, Inc., priority 1996, dated 2000)
Structures can show the parent of a compound that is named as a salt. Where two headings read alike, the source gives them in different places.

Experiments:
[1] = molecular target: sigma receptor (sigma-1 and sigma-2 sites); test: Sigma receptor binding assay ([^3 H]DTG, guinea pig brain membrane homogenates); conditions: for IC50: Example 3 table, tested by the [^3 H]DTG assay of Example 2; for Ki: Table II, [^3 H]DTG 1.4 nM, guinea pig brain membranes, pH 7.4, 90 minutes room temperature, IC50 values indicated as Ki, read-out: Ki nM (± SEM)
Protocol: Briefly, frozen whole guinea-pig brains (Biotrol, Indianapolis, Ind.) were homogenized in 10 volumes (w/v) of ice-cold 320 mM sucrose using a Brinkman® polytron. The homogenate was centrifuged at 1,000× g for 20 minutes at 4° C. The supernatant was centrifuged at 20,000× g for 20 minutes at 4° C. The resulting pellet was resuspended in 10 initial volumes of 50 mM Tris/HCI buffer at pH 7.4 and centrifuged at 20,000× g for 20 minutes at 4° C. The resulting pellet was resuspended in 5 initial volumes ice-cold 50 mM Tris/HCl (pH 7.4), and the final volume was adjusted to yield a protein concentration of 3 mg/mL.
The protein concentration in the 1-ml final incubation volume was 800 μg/ml, corresponding to 32 mg of brain tissue (original wet weight) and to a tissue concentration within the linear range for specific binding.
The volume of the assays may be changed, specifically halved, so long as the concentrations of the constituents remain the same. […] Incubations were terminated after 90 minutes at room temperature by addition of 4 ml of ice-cold 50 mM Tris/HCI (pH 7.4) and rapid filtration of the membrane suspension through Whatman® GF/B or Schieicher & Schuell #32 glass-fiber filters under vacuum, using a 48-well cell harvester (Brandel). The filters were washed 2 times with 4 mL of 50 mM Tris/HCI (pH 7.4). Each filter was suspended in 10 ml Cytoscint (ICI), and radioactivity was measured by liquid scintillation spectrometry at a counting efficiency of approximately 50%. IC50 values (indicated as Ki in Tables II below) were determined by non-linear regression analysis.

sigma-2 receptor = molecular target: T1, sigma-2 receptor (Cavia porcellus, UniProt H0V073); test: Sigma-2 binding assay ([^3 H]DTG in the presence of (+)pentazocine); set-up: species or system guinea pig
T1 construct: of guinea pig brain membranes in a total volume of 0.5 ml; from tissue; host or cells: guinea pig brain membranes
T1 sequence (H0V073 1-176): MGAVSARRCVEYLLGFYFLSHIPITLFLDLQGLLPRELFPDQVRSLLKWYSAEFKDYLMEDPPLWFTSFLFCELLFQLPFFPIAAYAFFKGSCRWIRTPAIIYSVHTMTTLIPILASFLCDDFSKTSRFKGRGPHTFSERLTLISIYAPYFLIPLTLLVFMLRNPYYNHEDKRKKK
Description: Protocols of the Sigma-1 and Sigma-2 binding assays employed are as follows:

sigma-1 receptor [2] = molecular target: T2, sigma-1 receptor (Cavia porcellus, UniProt Q60492); conditions: pH 8
Protocol: (§1) Non-specific binding was determined in the presence of 10 μM haloperiodol. For the standard equilibrium assay the mixtures were incubated for 4-5 hours at 37° C., quenched with 4 ml of ice cold incubation buffer and rapidly filtered over Whatman GF/B glass fiber filters, followed by three 4 ml rinses with additional ice cole incubation buffer.

sigma-1 receptor [3] = molecular target: T2, sigma-1 receptor; test: biochemical
Protocol: as §1

sigma-1 site = sigma-1 site (Cavia porcellus, UniProt Q60492); conditions: Hellewell and Bowen (1990); cited from earlier work
[4] = system: NMDA-induced toxicity and seizures; conditions: in vivo; Pontecorvo et al.; cited from earlier work
opiate receptors = conditions: cited from earlier work
PCP receptors = conditions: cited from earlier work
sigma sites = conditions: in words; cited from earlier work
gerbils = conditions: in vivo, Rao et al.; cited from earlier work
[5] = system: NMDA-type of glutamate receptors; conditions: Rao et al.; cited from earlier work
DA sites = conditions: cited from earlier work

T2 sequence (Q60492 whole entry): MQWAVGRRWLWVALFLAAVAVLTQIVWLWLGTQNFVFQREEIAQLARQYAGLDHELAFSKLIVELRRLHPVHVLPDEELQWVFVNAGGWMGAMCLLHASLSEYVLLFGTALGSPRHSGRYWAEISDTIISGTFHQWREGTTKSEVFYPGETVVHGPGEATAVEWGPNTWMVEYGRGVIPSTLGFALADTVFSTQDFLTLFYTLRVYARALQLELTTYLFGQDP
Chain of sigma-1 site (Q60492 whole entry): as above

CN(CCCCCc1ccccc1)CCc1ccccc1
IC50 [1]: 1.3 nM | IC50 (sigma-2 receptor; read-out: Sigma 2 IC50): 4.98 nM | Ki (sigma-1 receptor [2]): 0.25 nM

CNC(CCCCCc1ccccc1)CCCCCc1ccccc1
IC50 [1]: 2.97 nM

c1ccc(CCCCCNCCc2ccccc2)cc1
IC50 [1]: 3.66 nM

c1ccc(CCCCCN2CCCC2)cc1
IC50 [1]: 4.95 nM | IC50 (sigma-2 receptor; read-out: Sigma 2 IC50): 69.7 nM | Ki (sigma-1 receptor [3]): 0.76 nM

CN(CCCCCc1cccc(C(F)(F)F)c1)CCc1ccccc1
IC50 (sigma-2 receptor; read-out: Sigma 2 IC50): 3.57 nM | Ki (sigma-1 receptor [3]): 0.59 nM

CN(CCCCCc1ccccc1)CCc1cccc(C(F)(F)F)c1
IC50 (sigma-2 receptor; read-out: Sigma 2 IC50): 14.4 nM | Ki (sigma-1 receptor [3]): 1.74 nM

CN(CCCCC(=O)c1cccc(C(F)(F)F)c1)CCc1ccccc1
IC50 (sigma-2 receptor; read-out: Sigma 2 IC50): 1.27 nM | Ki (sigma-1 receptor [3]): 0.71 nM

CN(CCCCC(O)c1cccc(C(F)(F)F)c1)CCc1ccccc1 (centres unmarked)
IC50 (sigma-2 receptor; read-out: Sigma 2 IC50): 3.02 nM | Ki (sigma-1 receptor [3]): 0.95 nM

CN1CCN(CCCCCc2ccccc2)CC1
IC50 (sigma-2 receptor; read-out: Sigma 2 IC50): 78.9 nM | Ki (sigma-1 receptor [3]): 1.44 nM

CN1CCC(CCCCCc2ccccc2)CC1
IC50 (sigma-2 receptor; read-out: Sigma 2 IC50): 97.3 nM | Ki (sigma-1 receptor [3]): 0.6 nM

O=[N+]([O-])c1ccc(CCCCCN2CCCCC2)cc1
IC50 (sigma-2 receptor; read-out: Sigma 2 IC50): 9.91 nM | Ki (sigma-1 receptor [3]): 0.16 nM

c1ccc2c(c1)C1CC2C(N2CCCCC2)C1 (centres unmarked)
IC50 (sigma-2 receptor; read-out: Sigma 2 IC50, about 2 nM [^3 H]DTG with 200 nM (+)pentazocine, guinea pig brain membranes, pH 7.4, 30 minutes room temperature): 5.29 nM | Ki (sigma-1 receptor [2]): 0.13 nM

c1ccc(CCCCCN2CCCC(Cc3ccccc3)C2)cc1 (centres unmarked)
IC50 (sigma-2 receptor; read-out: Sigma 2 IC50): 4.17 nM | Ki (sigma-1 receptor [3]): 0.07 nM

c1ccc(CCCCCN2CCCCC2c2ccccc2)cc1 (centres unmarked)
IC50 (sigma-2 receptor; read-out: Sigma 2 IC50): 4.7 nM | Ki (sigma-1 receptor [3]): 0.16 nM

CN(CCCC=C(c1ccccc1)c1ccccc1)CCc1ccccc1
IC50 (sigma-2 receptor; read-out: Sigma 2 IC50): 40.8 nM | Ki (sigma-1 receptor [3]): 0.9 nM

CN(CCCCC(c1ccccc1)c1ccccc1)CCc1ccccc1
IC50 (sigma-2 receptor; read-out: Sigma 2 IC50): 31.5 nM

C(CCCNCCc1ccccc1)=C(c1ccccc1)c1ccccc1
IC50 (sigma-2 receptor; read-out: Sigma 2 IC50): 142 nM

CCN(CC)CCCCC(c1ccccc1)c1ccccc1
IC50 (sigma-2 receptor; read-out: Sigma 2 IC50): 51.2 nM | Ki (sigma-1 receptor [3]): 1.42 nM

CCN(CC)CCCCCc1ccccc1
IC50 (sigma-2 receptor; read-out: Sigma 2 IC50): 88.5 nM | Ki (sigma-1 receptor [3]): 6.01 nM

c1ccc(Cc2cccc(CN3CCCCC3)c2)cc1
IC50 (sigma-2 receptor; read-out: Sigma 2 IC50): 98.2 nM | Ki (sigma-1 receptor [3]): 5.44 nM

c1ccc(CCCCCN2CCCCC2Cc2ccccc2)cc1 (centres unmarked)
IC50 (sigma-2 receptor; read-out: Sigma 2 IC50): 10.4 nM | Ki (sigma-1 receptor [3]): 0.36 nM

CC(Cc1ccccc1)NCCCCCc1ccccc1 (centres unmarked)
IC50 (sigma-2 receptor): 10.9 nM | Ki (sigma-1 receptor [3]): 0.54 nM

CC(Cc1ccccc1)NCCCCc1ccccc1 (centres unmarked)
IC50 (sigma-2 receptor): 47.5 nM | Ki (sigma-1 receptor [3]): 7.38 nM

c1ccc(CNCCCN2CCN(c3ccccc3)CC2)cc1
IC50 (sigma-2 receptor; read-out: Sigma 2 IC50): 101 nM | Ki (sigma-1 receptor [3]): 1.96 nM

CC1CCN(CCCCCc2ccccc2)CC1
IC50 (sigma-2 receptor; read-out: Sigma 2 IC50): 7.1 nM | Ki (sigma-1 receptor [3]): 0.08 nM

CN1CCC(=CCCCCc2ccccc2)CC1
IC50 (sigma-2 receptor; read-out: Sigma 2 IC50): 258 nM | Ki (sigma-1 receptor [3]): 9.87 nM

c1ccc(CCNCCCCC(c2ccccc2)c2ccccc2)cc1
IC50 (sigma-2 receptor; read-out: Sigma 2 IC50): 100 nM | Ki (sigma-1 receptor [3]): 0.68 nM

CC1CCN(CCCC=C(c2ccccc2)c2ccccc2)CC1
IC50 (sigma-2 receptor; read-out: Sigma 2 IC50): 25 nM

CC1CCN(CCCCC(c2ccccc2)c2ccccc2)CC1
IC50 (sigma-2 receptor; about 2 nM [^3 H]DTG with 200 nM (+)pentazocine, guinea pig brain membranes, pH 7.4, 30 minutes room temperature, read-out: Sigma 2 IC50): 16.7 nM | Ki (sigma-1 receptor [2]): 0.1 nM

CC(C)=CCN1CCC2(C)c3cc(O)ccc3CC1C2C (single isomer, unassigned; (+)) [(+)pentazocine]
affinity for the sigma-1 site compared to the sigma-2 site (sigma-1 site): nearly two orders of magnitude higher affinity for the sigma-1 site compared to the sigma-2 site

OC(CCCN1CCN(c2ncc(F)cn2)CC1)c1ccc(F)cc1 (centres unmarked) [BMY-14802]
protective effects against NMDA-induced toxicity and seizures [4]: in vivo protective effects against NMDA-induced toxicity and seizures

O=C(CCCCN1CCC(c2ccc(Cl)cc2)CC1)c1ccc(Cl)c(Cl)c1 [Compound 1, 1,2,4-Dichlorophenyl-5-[4-(4-chlorophenyl)-1-piperidino]pentanone Hydrochloride]
Ki [1]: 1.8 nM

COc1ccc(C(=O)CCCCN2CCC(c3ccccc3)CC2)cc1 [Compound 2, 1-(4-Methoxyphenyl)-5-(4-phenyl-l-piperidino)pentanone Hydrochloride]
Ki [1]: 0.8 nM

Clc1ccc(CCCCCN2CCCCC2)cc1 [Compound 3, N-[5-(4-Chlorophenyl)pentyl]piperidine Hydrochloride]
Ki [1]: 2 nM

O=C(CCCCN1CCC(O)(c2ccc(Cl)cc2)CC1)c1ccc(F)cc1 [Compound 4]
Ki [1]: 2.6 nM

O=C(CCCCN1CCC(c2ccccc2)CC1)c1ccc(F)cc1 [Compound 5]
Ki [1]: 0.8 nM

O=C(CCCCN1CCC(c2ccccc2)CC1)c1ccccc1 [Compound 6]
Ki [1]: 0.9 nM

O=C(CCCCN1CCC(c2ccccc2)CC1)c1ccc(Cl)cc1 [Compound 7]
Ki [1]: 0.5 nM

O=C(CCCCN1CCC(c2ccccc2)CC1)c1cccc(Cl)c1 [Compound 8]
Ki [1]: 1.1 nM

COc1cccc(C(=O)CCCCN2CCC(c3ccccc3)CC2)c1 [Compound 9]
Ki [1]: 1 nM

O=C(CCCCN1CCC(c2ccc(Cl)cc2)CC1)c1ccc(Cl)cc1 [Compound 10]
Ki [1]: 1.8 nM

O=C(CCCCN1CC=C(c2ccc(Cl)cc2)CC1)c1ccc(Cl)cc1 [Compound 12]
Ki [1]: 4.3 nM

O=C(CCCCN1CC=C(c2ccc(F)cc2)CC1)c1ccc(Cl)cc1 [Compound 13]
Ki [1]: 2 nM

c1ccc(CCCCCN2CCC(c3ccccc3)CC2)cc1 [Compound 14]
Ki [1]: 0.9 nM

Clc1ccc(CCCCCN2CCC(c3ccccc3)CC2)cc1 [Compound 15]
Ki [1]: 1.8 nM

COc1ccc(CCCCCN2CCC(c3ccccc3)CC2)cc1 [Compound 16]
Ki [1]: 1.2 nM

O=C(CCCCN1CCCCC1)c1ccccc1 [Compound 17]
Ki [1]: 25.2 nM

O=C(CCCCN1CCCCC1)c1ccc(F)cc1 [Compound 18]
Ki [1]: 6.7 nM

O=C(CCCCN1CCCCC1)c1ccc(Cl)cc1 [Compound 19]
Ki [1]: 1.2 nM

O=C(CCCCN1CCCCC1)c1cccc(Cl)c1 [Compound 20]
Ki [1]: 3.8 nM

COc1ccc(C(=O)CCCCN2CCCCC2)cc1 [Compound 21]
Ki [1]: 9.9 nM

COc1cccc(C(=O)CCCCN2CCCCC2)c1 [Compound 22]
Ki [1]: 20.7 nM

c1ccc(CCCCCN2CCCCC2)cc1 [Compound 23]
Ki [1]: 1.9 nM

COc1ccc(CCCCCN2CCCCC2)cc1 [Compound 24]
Ki [1]: 4.7 nM

COc1cccc(CCCCCN2CCCCC2)c1 [Compound 25]
Ki [1]: 10.7 nM

C=CCN1CCC2(C)c3cc(O)ccc3CC1C2C (centres unmarked) [NANM, N-allyl normetazocine]
affinity at typical opiate receptors (opiate receptors): low affinity | affinity at PCP receptors (PCP receptors): significant affinity

CCN(CC)CCOC(=O)C1(c2ccccc2)CCCC1 [caramiphen]
protective effects against NMDA-induced toxicity and seizures [4]: in vivo protective effects against NMDA-induced toxicity and seizures

c1cc2c(cc1CCCCCN1CCCCC1)OCO2 [drawing 25]
IC50 [1]: 2.25 nM

c1cc2c(cc1CCCCCN1CCCCC1)OCO2 [drawing 38]
IC50 (sigma-2 receptor; read-out: Sigma 2 IC50): 63.4 nM | Ki (sigma-1 receptor [3]): 0.32 nM

OCCN1CCN(CCCN2c3ccccc3C=Cc3ccccc32)CC1 [opipramol]
affinity for sigma sites (sigma sites): potent sigma receptor ligand | protection against ischemia (gerbils): protect against ischemia in gerbils | biochemical effects on NMDA-type glutamate receptors [5]: biochemical effects consistent with modulation of the NMDA-type of glutamate receptors

O=C(CCCN1CCC2(CC1)C(=O)NCN2c1ccccc1)c1ccc(F)cc1 [spiperone]
affinity for sigma sites (sigma sites): essentially no affinity for sigma sites | affinity for DA sites (DA sites): high affinity for DA sites
